# Test results published in patent US10300027B2, “Effective sensitizing dose of a gelled immunomodulating topical composition” (Phio Pharmaceuticals Corp., priority 2010, dated 2019).
# Values joined by “and” are separate entries in the source; they are usually repeats but may differ in a detail not shown here. Equal values may be shown once.
# Experiments:
# non-genital warts [1] = assay: Example 1: randomized, double-blind, placebo control study of low dose DPCP gel for non-genital warts; assay type: in vivo, human
# Method: Patients were initially sensitized with 0.4% DPCP gel at the primary wart site. Approximately 14 days later and weekly thereafter for various periods, a challenge dose is then applied. A challenge dose of 0.04% DPCP was employed. The DPCP used was incorporated in a unique blend of surfactants, a viscosity agent, and a preservative.
# A single center, randomized, double-blind, placebo control study using low dose DPCP in a non-volatile vehicle for the treatment of non-genital warts was conducted. Patients were assigned to a treatment or placebo group in a 2:1 fashion. The two study gels were identical in appearance. The treatment group was sensitized with 0.1 ml of 0.4% DPCP gel which was applied to the inner arm and washed off in 24 hours. Fourteen days after the sensitization dose, 0.1 ml of 0.04% DPCP gel was applied to each wart, up to a total of 4 warts, for 7 consecutive weeks (Day 14, 21, 28, 35, 42, 49, 56). A final follow-up examination was performed on day 70. Patients were assessed at baseline and during each of 7 week treatment visits and on day 70 follow up.
# Efficacy was based on Lesion Surface Area. The size of each qualifying verruca wart was determined at each visit by measuring the longest dimension (long axis) and the corresponding widest dimension (90 to the long axis).
# Immunotherapeutic responses were characterized by grading the erythema, edema, induration, and scaling on a four-point scale: 0 (none) to 4 severe at each visit.
# (§1) Efficacy endpoints were determined based on the percent of patients achieving complete and partial eradication as measured by IGAS and reductions in warts lesion surface area. Subjects were assessed for the extent of their immunotherapeutic response to treatment based upon the degree of erythema, edema, induration and scaling. Safety was evaluated at each visit by recording and grading adverse events and ease of ambulation 4 point grading system was used.
# Adults 18-75 years of age in general good health with at least one non-genital cutaneous wart 5-20 mm in size were eligible for participation in the study. […] Pregnant or nursing women were excluded. Patients with unstable medical condition or history of immunosuppression were excluded. Use of systemic steroids, immunosuppressants, immunomodulators or cimetidine was not allowed for 4 weeks prior to enrollment. Any prior wart therapy was not allowed for 4 weeks. […] Patients could not be actively enrolled in another clinical trial within the previous 30 days.
# non-genital warts [2] = assay: Example 2: randomized, double-blind, placebo control study, 0.04% DPCP gel twice a week for non-genital warts; assay type: in vivo, human; set-up: key to Clearance Score: 3 points=Complete clearance; 2 points=partial clearance: >50% reduction in the area of all treated wart; 1 point=partial eradication: <50% reduction in the area of all treated warts; 0 points=treatment failure: complete or partial eradication not achieved; conditions: for Clearance Score: per wart of one subject
# Method: Institutional review board approval was obtained for this study, which was performed using Good Clinical Practice Guidelines and was compliant with the Code of Federal Regulation of the US Food and Drug Administration. A single center, 24 subject, randomized, double-blind, placebo control study using low dose DPCP in a non-volatile vehicle for the treatment of non-genital warts of established.
# Patients are assigned to a treatment or placebo group in a 2:1 fashion. The two study gels are identical in appearance. Both groups are sensitized with 0.1 ml of 0.4% DPCP gel which is applied to the inner arm and washed off in 24 hours. Fourteen days after the sensitization dose, 0.1 ml of 0.04% DPCP gel or placebo is applied to each wart, up to a total of 4 warts, […] for 7 consecutive weeks (Day 14, 21, 28, 35, 42, 49, 56, […]). A final follow-up examination is performed on day 77. Patients are assessed at baseline and during office visits on days 14, 28, and 63 and on the day 77 follow up visit.
# Efficacy is based on Lesion Surface Area. The size of each qualifying verruca wart is determined at each visit by measuring the longest dimension (long axis) and the corresponding widest dimension (90 to the long axis).
# Investigator's Global Assessment Score (IGAS) is calculated based upon the following 4 point scale: 3 points=Complete clearance; 2 points=partial clearance: >50% reduction in the area of all treated wart; 1 point=partial eradication: <50% reduction in the area of all treated warts; 0 points=treatment failure: complete or partial eradication not achieved.
# Immunotherapeutic responses are characterized by grading the erythema, edema, induration, and scaling on a four-point scale: 0 (none) to 4 severe at each visit.
# as §1, with “are” for “were”, “is” for “was”
# All subjects (both treated and placebo groups) are sensitized with the initial sensitizing dose of 0.4% DPCP gel applied directly to one target wart and to the inner aspect of the right arm and then covered with an occlusive adhesive bandage pad for 24 hours.
# The Investigator can determine if sensitization occurred at either of the application sites. If on day 14, the first “treatment visit”, no visible evidence of skin sensitization is observed then the subject can be dropped from the study. If on day 14 the investigator determines that sensitization has occurred, than the first treatment dose using the challenge dose (0.04% DPCP gel or placebo) randomly assigned upon enrollment can be administered by the investigator to all target warts and then covered with an occlusive adhesive bandage pad for 24 hours.
# The patient is provided with a tube containing the appropriate challenge product (0.04% DPCP gel or placebo) with detailed instructions on how to apply the product two times per week and the proper handling and storage of the product between applications.
# Two times per week the patient can apply the treatment dose (0.04% DPCP gel or placebo) to all target warts and then cover with an occlusive adhesive bandage pad for 24 hours.
# The Investigator can apply the treatment dose (0.04% DPCP gel or placebo) to all target warts and then cover with an occlusive adhesive bandage pad for 24 hours.
# The Investigator can apply the treatment dose (0.04% DPCP gel or placebo) to all target warts and then cover with an occlusive adhesive bandage pad for 24 hours. […] This is the final treatment. The patient is instructed to stop at home treatments and should return any unused gel. […]
# [3] = general statement, no test described; cited from earlier work
# [4] = 0.4% sensitizing dose, 0.04% challenge dose weekly
# [5] = 0.4% sensitizing dose, 0.04% challenge dose twice a week
compound,measurement,setting,value
"O=c1c(-c2ccccc2)c1-c1ccccc1 [DPCP, diphenylcyclopropenone]",side effects reported,non-genital warts [1]; [4],No significant side effects were reported other than skin rash at the sensitization site
same,tolerability reported by patients,non-genital warts [1]; [4],highly tolerable
same,subjects who obtained a clinical response/improvement,"non-genital warts [1]; DPCP group, 8 subjects, 0.4% sensitizing dose, then 0.04% gel weekly for 7 weeks",100%
same,warts with complete clearance,"non-genital warts [1]; DPCP group, 11 of 25 warts, vs 1 of 15 vehicle treated warts, p=0.01",44%
same,warts with partial to complete clearance,"non-genital warts [1]; DPCP group, 19/25 warts, 0.4% sensitizing dose, then 0.04% gel weekly for 7 weeks",76%
same,severe reactions at the application site,non-genital warts [1]; challenge dose of 0.04% DPCP after 0.4% sensitizing dose,did not result in observable severe reactions at the application site
same,surrounding untreated warts completely cleared,"non-genital warts [1]; one subject with numerous mosaic warts on the plantar foot, the 4 treated warts also completely cleared",> 50
same,sensitization,"non-genital warts [2]; 0.4% DPCP sensitization dose given to both treatment and placebo group, 7 subjects",all were successfully sensitized
same,side effects reported,non-genital warts [2]; [5],No significant side effects were reported other than skin rash at the sensitization site
same,tolerability reported by patients,non-genital warts [2]; [5],highly tolerable
same,treated warts that achieved greater than 50% clearance,"non-genital warts [2]; DPCP group, 1 of 6 warts",16%
same,treated warts that exhibited no clearance,"non-genital warts [2]; DPCP group, 1 of 6 warts",16%
same,treated warts with complete clearance,"non-genital warts [2]; DPCP group, 4/6 warts, 0.04% gel twice a week",67%
same,subjects who obtained a clinical response/improvement,"non-genital warts [2]; DPCP group, 4 of 5 subjects, 0.04% gel twice a week for 7 weeks",80%
same,Clearance Score,"non-genital warts [2]; at 5 weeks, 0.04% gel twice a week",5 weeks + 3
same,Clearance Score,"non-genital warts [2]; at 7 weeks, 0.04% gel twice a week, listed as DPC",7 weeks 0 and 7 weeks + 3 (3×) and 7 weeks + 2 (2 points=partial clearance: >50% reduction in the area of all treated wart)
same,"mutagenicity, teratogenicity and organ toxicity",[3],"not mutagenic, teratogenic and has no organ toxicity"
